# Molecular target: T1, mouse TRPM3α2 (mTRPM3) ion channel (Mus musculus, UniProt J9SQF3)
# T1 construct: expressed in transfected cells; host or cells: flip-in (Flp-In) HEK293
# Experiment: Monitoring the TRPM3 ion channel driven Ca2+ uptake (Fluo-4 AM assay)
# Format: cell-based
# Settings: mTRPM3alpha2 overexpressing flip-in HEK293 cells, stimulated with Pregnenolone sulfate (PS) 50 μM
# Method in brief: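 Flp-In HEK293 cells overexpressing mTRPM3α2 were loaded with Fluo-4 AM and added to plates holding compound plus 50 μM pregnenolone sulfate in Ca²⁺-containing Krebs buffer. Fluorescence (ex 485/em 535) was read right after cell addition. Inhibition was calculated against vehicle-stimulated and positive-control-inhibitor wells, with IC50 derived from it.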
# T1 sequence (J9SQF3 1-1709 isoform J9SQF3-12): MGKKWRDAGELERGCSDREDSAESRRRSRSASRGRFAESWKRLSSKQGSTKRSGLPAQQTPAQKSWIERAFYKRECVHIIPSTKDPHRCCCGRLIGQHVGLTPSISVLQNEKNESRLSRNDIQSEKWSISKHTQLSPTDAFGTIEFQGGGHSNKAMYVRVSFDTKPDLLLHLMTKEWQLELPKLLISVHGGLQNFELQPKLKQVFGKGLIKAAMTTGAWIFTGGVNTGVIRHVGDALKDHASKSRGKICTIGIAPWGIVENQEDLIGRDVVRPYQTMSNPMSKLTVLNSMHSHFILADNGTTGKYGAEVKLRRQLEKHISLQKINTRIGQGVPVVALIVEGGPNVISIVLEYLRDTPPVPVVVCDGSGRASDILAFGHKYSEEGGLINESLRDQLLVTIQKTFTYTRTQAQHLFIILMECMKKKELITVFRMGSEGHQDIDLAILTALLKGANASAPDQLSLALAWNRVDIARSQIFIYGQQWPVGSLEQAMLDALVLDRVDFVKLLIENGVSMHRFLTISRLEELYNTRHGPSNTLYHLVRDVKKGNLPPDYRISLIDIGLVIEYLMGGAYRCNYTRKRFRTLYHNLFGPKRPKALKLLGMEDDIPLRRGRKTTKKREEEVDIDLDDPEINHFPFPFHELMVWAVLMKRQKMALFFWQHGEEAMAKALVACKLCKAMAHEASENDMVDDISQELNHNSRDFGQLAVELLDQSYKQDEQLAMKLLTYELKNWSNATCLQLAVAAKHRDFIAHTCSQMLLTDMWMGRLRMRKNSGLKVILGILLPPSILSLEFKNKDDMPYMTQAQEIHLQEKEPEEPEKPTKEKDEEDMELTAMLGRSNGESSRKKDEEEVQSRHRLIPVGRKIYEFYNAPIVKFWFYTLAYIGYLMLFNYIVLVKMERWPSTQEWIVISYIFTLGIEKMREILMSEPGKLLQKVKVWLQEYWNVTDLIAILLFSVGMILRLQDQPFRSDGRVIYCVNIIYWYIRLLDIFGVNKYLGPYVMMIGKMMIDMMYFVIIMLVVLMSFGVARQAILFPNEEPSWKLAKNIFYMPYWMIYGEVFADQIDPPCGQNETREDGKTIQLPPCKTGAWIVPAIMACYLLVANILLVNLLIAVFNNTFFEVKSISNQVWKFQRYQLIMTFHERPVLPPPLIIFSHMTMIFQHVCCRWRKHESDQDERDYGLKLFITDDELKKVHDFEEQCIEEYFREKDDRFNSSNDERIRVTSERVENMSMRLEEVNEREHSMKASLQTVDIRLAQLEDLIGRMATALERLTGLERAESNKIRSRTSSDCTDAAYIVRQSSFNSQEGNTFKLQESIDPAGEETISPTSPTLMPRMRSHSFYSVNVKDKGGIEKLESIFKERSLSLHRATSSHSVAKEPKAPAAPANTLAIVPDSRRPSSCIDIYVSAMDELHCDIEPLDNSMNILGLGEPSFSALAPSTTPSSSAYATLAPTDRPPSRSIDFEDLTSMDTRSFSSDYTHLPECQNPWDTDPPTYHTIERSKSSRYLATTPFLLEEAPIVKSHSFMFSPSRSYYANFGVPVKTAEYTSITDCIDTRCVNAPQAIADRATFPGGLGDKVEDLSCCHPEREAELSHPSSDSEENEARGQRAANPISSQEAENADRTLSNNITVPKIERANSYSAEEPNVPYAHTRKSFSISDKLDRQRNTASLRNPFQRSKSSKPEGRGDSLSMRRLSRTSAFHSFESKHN
row,IC50,Compound
1,1000 to 20000 nM,"Cc1oc2ccc(OCC(C)(C)C)cc2c1C(=O)NC1CCNCC1(F)F (single isomer, unassigned) [Cpd 043-En2, N-(3,3-difluoropiperidin-4-yl)-5-(2,2-dimethylpropoxy)-2-methyl-1-benzofuran-3-carboxamide]"
2,< 1000 nM,"Cc1oc2ccc(OCC3(C(F)F)CC3)cc2c1C(=O)NC(C)(CO)C(N)=O (single isomer, unassigned) [Cpd 014 - En2, 2-[(5-{[1-(difluoromethyl)cyclopropyl]methoxy}-2-methyl-1-benzofuran-3-yl)formamido]-3-hydroxy-2-methylpropanamide]"
3,1000 to 20000 nM,"Cc1oc2ccc(OCC3CCC3)cc2c1C(=O)NC1CCNCC1(F)F (single isomer, unassigned) [Cpd 019 - En1, 5-(cyclobutylmethoxy)-N-(3,3-difluoropiperidin-4-yl)-2-methyl-1-benzofuran-3-carboxamide]"
4,< 1000 nM,"Cc1oc2ccc(OCC3CC3(C)C)cc2c1C(=O)NC1CCNCC1(F)F (single isomer, unassigned) [Cpd 033-En3, N-(3,3-difluoropiperidin-4-yl)-5-[(2,2-dimethylcyclopropyl)methoxy]-2-methyl-1-benzofuran-3-carboxamide]"
5,< 1000 nM,"Cc1oc2ccc(OCC3CC3)cc2c1C(=O)NC(C)(C)C(N)=O [Cpd 016, 2-{[5-(cyclopropylmethoxy)-2-methyl-1-benzofuran-3-yl]formamido}-2-methylpropanamide]"
6,1000 to 20000 nM,"COCC(C)(CO)NC(=O)c1c(C)oc2ccc(OCC3(C(F)(F)F)CC3)cc12 (single isomer, unassigned) [Cpd 060 - En1, N-(1-hydroxy-3-methoxy-2-methylpropan-2-yl)-2-methyl-5-{[1-(trifluoromethyl)cyclopropyl]methoxy}-1-benzofuran-3-carboxamide]"
7,1000 to 20000 nM,"Cc1oc2ccc(OCC3CC3(F)F)cc2c1C(=O)NC1CCNCC1(F)F (single isomer, unassigned) [Cpd 031 - En3, 5-[(2,2-difluorocyclopropyl)methoxy]-N-(3,3-difluoropiperidin-4-yl)-2-methyl-1-benzofuran-3-carboxamide]"
8,< 1000 nM,"Cc1oc2ccc(OCC34CC(C)(C3)C4)cc2c1C(=O)NC(C)(CO)C(N)=O (single isomer, unassigned) [Cpd 052 - En2, 3-hydroxy-2-methyl-2-{[2-methyl-5-({3-methylbicyclo[1.1.1]pentan-1-yl}methoxy)-1-benzofuran-3-yl]formamido}propenamide]"
9,< 1000 nM,"Cc1oc2ccc(OCC(C)C)cc2c1C(=O)NC1CCNCC1(F)F (single isomer, unassigned) [Cpd 042 - En2, N-(3,3-difluoropiperidin-4-yl)-2-methyl-5-(2-methylpropoxy)-1-benzofuran-3-carboxamide]"
10,1000 to 20000 nM,"Cc1oc2ccc(OCC(C)(C)C)cc2c1C(=O)NC1CCNCC1(F)F (single isomer, unassigned) [Cpd 043-En1, N-(3,3-difluoropiperidin-4-yl)-5-(2,2-dimethylpropoxy)-2-methyl-1-benzofuran-3-carboxamide]"
11,< 1000 nM,"Cc1oc2ccc(OCC3CC3(F)F)cc2c1C(=O)NC(CO)CC(F)(F)F (single isomer, unassigned) [Cpd 057 - En1, 5-[(2,2-difluorocyclopropyl)methoxy]-2-methyl-N-(4,4,4-trifluoro-1-hydroxybutan-2-yl)-1-benzofuran-3-carboxamide]"
12,< 1000 nM,"Cc1oc2ccc(OCC3CCC3)cc2c1C(=O)NC(C)(CO)CO [Cpd 018, 5-(cyclobutylmethoxy)-N-(1,3-dihydroxy-2-methylpropan-2-yl)-2-methyl-1-benzofuran-3-carboxamide]"
13,< 1000 nM,"Cc1oc2ccc(OCC3CCC3)cc2c1C(=O)NC(C)(C)C(N)=O [Cpd 015, 2-{[5-(cyclobutylmethoxy)-2-methyl-1-benzofuran-3-yl]formamido}-2-methylpropanamide]"
14,< 1000 nM,"Cc1oc2ccc(OCC3CC3)cc2c1C(=O)NC(C)(CO)CO [Cpd 023, 5-(cyclopropylmethoxy)-N-(1,3-dihydroxy-2-methylpropan-2-yl)-2-methyl-1-benzofuran-3-carboxamide]"
15,< 1000 nM,"Cc1oc2ccc(OCC3CC3)cc2c1C(=O)NC(C)(CO)C(N)=O (single isomer, unassigned) [Cpd 017 - En1, 2-{[5-(cyclopropylmethoxy)-2-methyl-1-benzofuran-3-yl]formamido}-3-hydroxy-2-methylpropanamide]"
16,< 1000 nM,"Cc1oc2ccc(OCC3CCC3)cc2c1C(=O)NC(C)(CO)C(N)=O (single isomer, unassigned) [Cpd 053 - En1, 2-{[5-(cyclobutylmethoxy)-2-methyl-1-benzofuran-3-yl]formamido}-3-hydroxy-2-methylpropanamide]"

# Second part, the compound before the results:
row,Compound,IC50
1,"Cc1oc2ccc(OCC3CC3(C)C)cc2c1C(=O)NC(C)(CO)C(N)=O (single isomer, unassigned) [Cpd 049 - En4, 2-({5-[(2,2-dimethylcyclopropyl)methoxy]-2-methyl-1-benzofuran-3-yl}formamido)-3-hydroxy-2-methylpropanamide]",< 1000 nM
2,"Cc1oc2ccc(OC[C@H]3C[C@H](C)C3)cc2c1C(=O)NC(C)(CO)C(N)=O (single isomer, unassigned) [Cpd 059 - En1, Trans-3-hydroxy-2-methyl-2-({2-methyl-5-[(3-methylcyclobutyl)methoxy]-1-benzofuran-3-yl}formamido)propenamide]",< 1000 nM
3,"Cc1oc2ccc(OCC3CC3(F)F)cc2c1C(=O)NC(CO)CC(F)(F)F (single isomer, unassigned) [Cpd 057 - En3, 5-[(2,2-difluorocyclopropyl)methoxy]-2-methyl-N-(4,4,4-trifluoro-1-hydroxybutan-2-yl)-1-benzofuran-3-carboxamide]",1000 to 20000 nM
4,"Cc1oc2ccc(OCC3CC3)cc2c1C(=O)NC1(CO)CCC1 [Cpd 025, 5-(cyclopropylmethoxy)-N-[1-(hydroxymethyl)cyclobutyl]-2-methyl-1-benzofuran-3-carboxamide]",< 1000 nM
5,"Cc1oc2ccc(OCCC3CC3)cc2c1C(=O)N[C@@H](CO)C(N)=O [Cpd 005, (2S)-2-{[5-(2-cyclopropylethoxy)-2-methyl-1-benzofuran-3-yl]formamido}-3-hydroxypropanamide]",< 1000 nM
6,"Cc1oc2ccc(OCC3CC3)cc2c1C(=O)NC1(C(N)=O)CCOCC1 [Cpd 037, N-(4-carbamoyloxan-4-yl)-5-(cyclopropylmethoxy)-2-methyl-1-benzofuran-3-carboxamide]",< 1000 nM
7,"Cc1oc2ccc(OCC3CCC3)cc2c1C(=O)N[C@@H](C)C(N)=O [Cpd 007, (2S)-2-{[5-(cyclobutylmethoxy)-2-methyl-1-benzofuran-3-yl]formamido}propanamide]",< 1000 nM
8,"Cc1oc2ccc(OCC3(C(F)F)CC3)cc2c1C(=O)NC1(C(N)=O)CCOC1 (single isomer, unassigned) [Cpd 036 - En2, N-(3-carbamoyloxolan-3-yl)-5-{[1-(difluoromethyl)cyclopropyl]methoxy}-2-methyl-1-benzofuran-3-carboxamide]",< 1000 nM
9,"Cc1oc2ccc(OCC3CC3)cc2c1C(=O)NC1(CO)CCCNC1=O (single isomer, unassigned) [Cpd 027 - En2, 5-(cyclopropylmethoxy)-N-[3-(hydroxymethyl)-2-oxopiperidin-3-yl]-2-methyl-1-benzofuran-3-carboxamide]",1000 to 20000 nM
10,"Cc1oc2ccc(OC[C@H]3C[C@@H](C)C3)cc2c1C(=O)NC(C)(CO)C(N)=O (single isomer, unassigned) [Cpd 058 - En2, Cis-3-hydroxy-2-methyl-2-({2-methyl-5-[(3-methylcyclobutyl)methoxy]-1-benzofuran-3-yl}formamido)propenamide]",1000 to 20000 nM
11,"Cc1oc2ccc(OCC3CC3)cc2c1C(=O)NC1(CO)COC1 [Cpd 029, 5-(cyclopropylmethoxy)-N-[3-(hydroxymethyl)oxetan-3-yl]-2-methyl-1-benzofuran-3-carboxamide]",< 1000 nM
12,"Cc1oc2ccc(OCC3CC3(C)C)cc2c1C(=O)NC(C)(CO)C(N)=O (single isomer, unassigned) [Cpd 049 - En2, 2-({5-[(2,2-dimethylcyclopropyl)methoxy]-2-methyl-1-benzofuran-3-yl}formamido)-3-hydroxy-2-methylpropanamide]",< 1000 nM
13,"Cc1oc2ccc(OCC3CC3)cc2c1C(=O)NC1(C(N)=O)CCOC1 (single isomer, unassigned) [Cpd 035 - En1, N-(3-carbamoyloxolan-3-yl)-5-(cyclopropylmethoxy)-2-methyl-1-benzofuran-3-carboxamide]",< 1000 nM
14,"Cc1oc2ccc(OCCC3CC3)cc2c1C(=O)N[C@H](C(N)=O)[C@@H](C)O [Cpd 012, (2S,3R)-2-{[5-(2-cyclopropylethoxy)-2-methyl-1-benzofuran-3-yl]formamido}-3-hydroxybutanamide]",< 1000 nM
15,"Cc1oc2ccc(OCC(F)(F)F)cc2c1C(=O)NC(C)(CO)C(N)=O (single isomer, unassigned) [Cpd 047 - En2, 3-hydroxy-2-methyl-2-{[2-methyl-5-(2,2,2-trifluoroethoxy)-1-benzofuran-3-yl]formamido}propanamide]",< 1000 nM
16,"Cc1oc2ccc(OCC(F)F)cc2c1C(=O)NC1(C(N)=O)CCOC1 (single isomer, unassigned) [Cpd 044 - En1, N-(3-carbamoyloxolan-3-yl)-5-(2,2-difluoroethoxy)-2-methyl-1-benzofuran-3-carboxamide]",1000 to 20000 nM
17,"Cc1oc2ccc(OC[C@H]3C[C@@H]4C[C@@H]4C3)cc2c1C(=O)NC(C)(CO)C(N)=O (single isomer, unassigned) [Cpd 051 - En1, Trans-2-{[5-({bicyclo[3.1.0]hexan-3-yl}methoxy)-2-methyl-1-benzofuran-3-yl]formamido}-3-hydroxy-2-methylpropanamide]",< 1000 nM

# Reference: patent US20250320189A1, “NEW DERIVATIVES FOR TREATING TRPM3 MEDIATED DISORDERS” (Katholieke Universiteit Leuven, priority 2022, published 2025)
